Experimental data from patent publication US9688710B2, “Inhibitors of sodium glucose cotransporter 1” (LEXICON PHARMACEUTICALS, INC., priority 2012, dated 2017).

Legend:
[1] = target: Human sodium/glucose co-transporter type 2 (SGLT2) (Homo sapiens (Human), UniProt P31639); experiment: In vitro human SGLT2 inhibition assay (14C-AMG uptake); type: cell-based; conditions: HEK293 cells expressing human HA-SGLT2, 14C-AMG uptake
Summary of the method: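 Uptake of 14C-AMG (100 nCi) was followed in a stable HEK293 HA-SGLT2 line over 1-2 h at 37 °C with or without compound. Buffer: 140 mM NaCl, 10 mM HEPES, 5 mM Tris, 1 mg/mL BSA, pH 7.3. Readout was scintillation counting after washing.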

[2] = target: Human sodium/glucose co-transporter type 1 (SGLT1) (Homo sapiens (Human), UniProt P13866); experiment: In vitro human SGLT1 inhibition assay (14C-AMG uptake); type: cell-based; set-up: key to SGLT1 (human SGLT1 IC50): ***: a value less than 0.01 μM; **: a value less than 0.1 μM; *: a value less than 1 μM; —: a value not measured or exceeding μM; conditions: HEK293 cells expressing human HA-SGLT1, 14C-AMG uptake
Summary of the method: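 Uptake of 14C-AMG (100 nCi) was measured by scintillation counting after 1–2 h at 37 °C, 5% CO2, with or without compound. The buffer was pH 7.3 with 140 mM NaCl, 1 mM CaCl2, 1 mM MgCl2 and 1 mg/mL BSA. Cells were a stable HEK293 line carrying HA-SGLT1 (human), plated overnight at 30,000 per well.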

Chain of Human sodium/glucose co-transporter type 1 (SGLT1) (P13866 whole entry): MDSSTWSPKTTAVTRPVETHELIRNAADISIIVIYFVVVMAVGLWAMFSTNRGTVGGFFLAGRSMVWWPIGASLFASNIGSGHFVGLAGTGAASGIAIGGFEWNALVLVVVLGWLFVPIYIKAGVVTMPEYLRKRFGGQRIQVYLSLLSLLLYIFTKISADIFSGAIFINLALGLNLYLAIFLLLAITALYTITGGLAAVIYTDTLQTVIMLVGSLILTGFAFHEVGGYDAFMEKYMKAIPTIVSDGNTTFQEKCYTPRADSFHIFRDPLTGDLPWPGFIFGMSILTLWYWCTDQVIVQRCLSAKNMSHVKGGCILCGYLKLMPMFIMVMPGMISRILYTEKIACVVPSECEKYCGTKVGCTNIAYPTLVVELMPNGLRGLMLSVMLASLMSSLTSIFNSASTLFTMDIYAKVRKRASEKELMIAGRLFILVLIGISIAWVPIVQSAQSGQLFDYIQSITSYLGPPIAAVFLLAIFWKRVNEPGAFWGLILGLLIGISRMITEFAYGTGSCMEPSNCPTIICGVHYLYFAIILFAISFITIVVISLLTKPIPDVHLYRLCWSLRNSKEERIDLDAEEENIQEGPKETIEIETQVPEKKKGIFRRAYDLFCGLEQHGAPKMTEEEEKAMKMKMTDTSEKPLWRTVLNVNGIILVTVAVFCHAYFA
Chain of Human sodium/glucose co-transporter type 2 (SGLT2) (P31639 whole entry): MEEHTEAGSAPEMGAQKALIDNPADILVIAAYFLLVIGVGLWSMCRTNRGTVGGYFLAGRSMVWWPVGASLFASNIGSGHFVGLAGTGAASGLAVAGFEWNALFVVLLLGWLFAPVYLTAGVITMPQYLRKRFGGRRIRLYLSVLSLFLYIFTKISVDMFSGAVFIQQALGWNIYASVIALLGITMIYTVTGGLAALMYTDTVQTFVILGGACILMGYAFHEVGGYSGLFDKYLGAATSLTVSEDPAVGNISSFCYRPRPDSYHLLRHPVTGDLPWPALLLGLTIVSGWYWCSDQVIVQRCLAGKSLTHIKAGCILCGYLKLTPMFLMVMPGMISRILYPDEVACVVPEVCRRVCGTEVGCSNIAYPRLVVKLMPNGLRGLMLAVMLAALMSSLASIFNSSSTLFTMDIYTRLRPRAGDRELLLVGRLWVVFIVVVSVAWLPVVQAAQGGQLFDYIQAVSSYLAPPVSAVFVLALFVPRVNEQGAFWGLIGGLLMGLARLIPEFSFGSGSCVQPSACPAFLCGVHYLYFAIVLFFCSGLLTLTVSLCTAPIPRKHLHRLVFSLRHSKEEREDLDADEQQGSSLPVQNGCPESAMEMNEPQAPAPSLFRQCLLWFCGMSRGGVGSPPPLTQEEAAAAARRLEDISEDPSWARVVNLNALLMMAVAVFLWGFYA

| SMILES | IC50 [1] | IC50 [2] | SGLT1 (human SGLT1 IC50) [2] |
| --- | --- | --- | --- |
| COCCOCCOc1ccc(Cc2cc([C@@H]3O[C@H](SC)[C@@H](O)[C@H](O)[C@H]3O)ccc2Cl)cc1 [(2S,3R,4R,5S,6R)-2-(4-chloro-3-(4-(2-(2-methoxyethoxy)ethoxy)benzyl)phenyl)-6-(methylthio)tetrahydro-2H-pyran-3,4,5-triol] | < 10 nM | < 100 nM |  |
| CCN(CC)CCOc1ccc(Cc2cc([C@@H]3O[C@H](SC)[C@@H](O)[C@H](O)[C@H]3O)ccc2Cl)cc1 [(2S,3R,4R,5S,6R)-2-(4-chloro-3-(4-(2-(diethylamino)ethoxy)benzyl)phenyl)-6-(methylthio)tetrahydro-2H-pyran-3,4,5-triol] | < 10 nM | < 10 nM |  |
| CS[C@H]1O[C@@H](c2ccc(Cl)c(Cc3ccc(OCCNC4CCNCC4)cc3)c2)[C@H](O)[C@@H](O)[C@@H]1O [(2S,3R,4R,5S,6R)-2-(4-chloro-3-(4-(2-(piperidin-4-ylamino)ethoxy)benzyl)phenyl)-6-(methylthio)tetrahydro-2H-pyran-3,4,5-triol] | < 10 nM | < 100 nM |  |
| CS[C@H]1OC(c2ccc(C)c(Cc3ccc(CCCCCl)cc3)c2)[C@H](O)[C@@H](O)[C@@H]1O (stereo partly drawn) [(3R,4R,5S,6R)-2-(3-(4-(4-chlorobutyl)benzyl)-4-methylphenyl)-6-(methylthio)tetrahydro-2H-pyran-3,4,5-triol] | < 10 nM | < 10 nM |  |
| CS[C@H]1O[C@@H](c2ccc(C)c(Cc3ccc(/C=C/C(=O)N4CCN(C)CC4)cc3)c2)[C@H](O)[C@@H](O)[C@@H]1O [(E)-3-(4-(2-methyl-5-((2S,3R,4R,5S,6R)-3,4,5-trihydroxy-6-(methylthio)tetrahydro-2H-pyran-2-yl)benzyl)phenyl)-1-(4-methylpiperazin-1-yl)prop-2-en-1-one] | < 10 nM | < 100 nM |  |
| CS[C@H]1O[C@@H](c2ccc(C)c(Cc3ccc(/C=C/CCC(=O)NC(CO)(CO)CO)cc3)c2)[C@H](O)[C@@H](O)[C@@H]1O [(E)-N-(1,3-dihydroxy-2-(hydroxymethyl)propan-2-yl)-5-(4-(2-methyl-5-((2S,3R,4R,5S,6R)-3,4,5-trihydroxy-6-(methylthio)tetrahydro-2H-pyran-2-yl)benzyl)phenyl)pent-4-enamide] | < 10 nM | < 10 nM |  |
| CS[C@H]1O[C@@H](c2ccc(C)c(Cc3ccc(/C=C/CCC(=O)NC(C)(C)C(=O)N4CCN(C)CC4)cc3)c2)[C@H](O)[C@@H](O)[C@@H]1O [(E)-N-(2-methyl-1-(4-methylpiperazin-1-yl)-1-oxopropan-2-yl)-5-(4-(2-methyl-5-((2S,3R,4R,5S,6R)-3,4,5-trihydroxy-6-(methylthio)tetrahydro-2H-pyran-2-yl)benzyl)phenyl)pent-4-enamide] | < 10 nM | < 10 nM |  |
| CSC1OC(c2ccc(C)c(Cc3ccc(CCCC(=O)N4CCN(CCCN5CCN(C(=O)CCCc6ccc(Cc7cc(C8OC(SC)C(O)C(O)C8O)ccc7C)cc6)CC5)CC4)cc3)c2)C(O)C(O)C1O [(S,R,S,R,R)-1,1′-(4,4′-(propane-1,3-diyl)bis(piperazine-4,1-diyl))bis(4-(4-(2-methyl-5-((2S,3R,4R,5S,6R)-3,4,5-trihydroxy-6-(methylthio)tetrahydro-2H-pyran-2-yl)benzyl)phenyl)butan-1-one)] | < 10 nM | < 10 nM |  |
| CS[C@H]1O[C@@H](c2ccc(C)c(Cc3ccc(CCCC(=O)NCCCN(C)CCCNC(=O)CCCc4ccc(Cc5cc([C@@H]6O[C@H](SC)[C@@H](O)[C@H](O)[C@H]6O)ccc5C)cc4)cc3)c2)[C@H](O)[C@@H](O)[C@@H]1O [(S,R,S,R,R)-N,N′-((methylazanediyl)bis(propane-3,1-diyl))bis(4-(4-(2-methyl-5-((2S,3R,4R,5S,6R)-3,4,5-trihydroxy-6-(methylthio)tetrahydro-2H-pyran-2-yl)benzyl)phenyl)butanamide)] | < 10 nM | < 10 nM |  |
| CS[C@H]1O[C@@H](c2ccc(C)c(Cc3ccc(CCCC(=O)NCCN(CCNC(=O)CCCc4ccc(Cc5cc([C@@H]6O[C@H](SC)[C@@H](O)[C@H](O)[C@H]6O)ccc5C)cc4)CCNC(=O)CCCc4ccc(Cc5cc([C@@H]6O[C@H](SC)[C@@H](O)[C@H](O)[C@H]6O)ccc5C)cc4)cc3)c2)[C@H](O)[C@@H](O)[C@@H]1O [(S,R,S,R,R,S,R,S,R,R)-N,N′,N″-(nitrilotris(ethane-2,1-diyl))tris(4-(4-(2-methyl-5-((2S,3R,4R,5S,6R)-3,4,5-trihydroxy-6-(methylthio)tetrahydro-2H-pyran-2-yl)benzyl)phenyl)butanamide)] | < 10 nM | < 100 nM |  |

Next, values leading:

| IC50 [1] | IC50 [2] | SGLT1 (human SGLT1 IC50) [2] | SMILES |
| --- | --- | --- | --- |
| < 10 nM | < 10 nM |  | CS[C@H]1OC(c2ccc(C)c(Cc3ccc(OCCCNC(C)(CO)CO)cc3)c2)[C@H](O)[C@@H](O)[C@@H]1O (stereo partly drawn) [(3R,4R,5S,6R)-2-(3-(4-(3-((1,3-dihydroxy-2-methylpropan-2-yl)amino)propoxy)benzyl)-4-methylphenyl)-6-(methylthio)tetrahydro-2H-pyran-3,4,5-triol] |
| < 10 nM | < 10 nM |  | CS[C@H]1OC(c2ccc(C)c(Cc3ccc(OCCCNC(CO)CO)cc3)c2)[C@H](O)[C@@H](O)[C@@H]1O (stereo partly drawn) [(3R,4R,5S,6R)-2-(3-(4-(3-((1,3-dihydroxypropan-2-yl)amino)propoxy)benzyl)-4-methylphenyl)-6-(methylthio)tetrahydro-2H-pyran-3,4,5-triol] |
| < 10 nM | < 10 nM |  | CS[C@H]1OC(c2ccc(C)c(Cc3ccc(OCCCNCC(C)(C)CO)cc3)c2)[C@H](O)[C@@H](O)[C@@H]1O (stereo partly drawn) [(3R,4R,5S,6R)-2-(3-(4-(3-((3-hydroxy-2,2-dimethylpropyl)amino)propoxy)benzyl)-4-methylphenyl)-6-(methylthio)tetrahydro-2H-pyran-3,4,5-triol] |
| < 10 nM | < 10 nM |  | CS[C@H]1O[C@@H](c2ccc(C)c(Cc3ccc(/C=C/CCC(=O)NC(C)(C)C(N)=O)cc3)c2)[C@H](O)[C@@H](O)[C@@H]1O [(E)-N-(1-amino-2-methyl-1-oxopropan-2-yl)-5-(4-(2-methyl-5-((2S,3R,4R,5S,6R)-3,4,5-trihydroxy-6-(methylthio)tetrahydro-2H-pyran-2-yl)benzyl)phenyl)pent-4-enamide] |
| < 10 nM | < 100 nM |  | CS[C@H]1O[C@@H](c2ccc(C)c(Cc3ccc(OCCCC(=O)N[C@@H](CC(N)=O)C(N)=O)cc3)c2)[C@H](O)[C@@H](O)[C@@H]1O [(S)-2-(4-(4-(2-methyl-5-((2S,3R,4R,5S,6R)-3,4,5-trihydroxy-6-(methylthio)tetrahydro-2H-pyran-2-yl)benzyl)phenoxy)butanamido)succinamide] |
| < 100 nM |  | — | CS[C@H]1O[C@@H](c2ccc(Cl)c(Cc3ccc(OCC[C@H](N)C(=O)O)cc3)c2)[C@H](O)[C@@H](O)[C@@H]1O [(S)-2-amino-4-(4-(2-chloro-5-((2S,3R,4R,5S,6R)-3,4,5-trihydroxy-6-(methylthio)tetrahydro-2H-pyran-2-yl)benzyl)phenoxy)butanoic acid] |
| < 100 nM |  | — | CS[C@H]1O[C@@H](c2ccc(C)c(Cc3ccc(CCC[C@H](N)C(=O)O)cc3)c2)[C@H](O)[C@@H](O)[C@@H]1O [(S)-2-amino-5-(4-(2-methyl-5-((2S,3R,4R,5S,6R)-3,4,5-trihydroxy-6-(methylthio)tetrahydro-2H-pyran-2-yl)benzyl)phenyl)pentanoic acid] |
| < 10 nM | < 100 nM |  | CS[C@H]1O[C@@H](c2ccc(Cl)c(Cc3ccc(OCC(=O)NCCCC[C@H](N)C(=O)O)cc3)c2)[C@H](O)[C@@H](O)[C@@H]1O [(S)-2-amino-6-(2-(4-(2-chloro-5-((2S,3R,4R,5S,6R)-3,4,5-trihydroxy-6-(methylthio)tetrahydro-2H-pyran-2-yl)benzyl)phenoxy)acetamido)hexanoic acid] |
| < 10 nM | < 100 nM |  | CS[C@H]1O[C@@H](c2ccc(Cl)c(Cc3ccc(OCCCC[C@H](N)C(=O)O)cc3)c2)[C@H](O)[C@@H](O)[C@@H]1O [(S)-2-amino-6-(4-(2-chloro-5-((2S,3R,4R,5S,6R)-3,4,5-trihydroxy-6-(methylthio)tetrahydro-2H-pyran-2-yl)benzyl)phenoxy)hexanoic acid] |
| < 10 nM | < 10 nM |  | CS[C@H]1O[C@@H](c2ccc(C)c(Cc3ccc(CCCC(=O)NCCCC[C@H](N)C(=O)O)cc3)c2)[C@H](O)[C@@H](O)[C@@H]1O [(S)-2-amino-6-(4-(4-(2-methyl-5-((2S,3R,4R,5S,6R)-3,4,5-trihydroxy-6-(methylthio)tetrahydro-2H-pyran-2-yl)benzyl)phenyl)butanamido)hexanoic acid] |
| < 10 nM | < 100 nM |  | CS[C@H]1O[C@@H](c2ccc(C)c(Cc3ccc(CCCCC(=O)NCCCC[C@H](N)C(=O)O)cc3)c2)[C@H](O)[C@@H](O)[C@@H]1O [(S)-2-amino-6-(5-(4-(2-methyl-5-((2S,3R,4R,5S,6R)-3,4,5-trihydroxy-6-(methylthio)tetrahydro-2H-pyran-2-yl)benzyl)phenyl)pentanamido)hexanoic acid] |
| < 10 nM | < 100 nM |  | CS[C@H]1O[C@@H](c2ccc(C)c(Cc3ccc(/C=C/C[C@H](N)C(=O)O)cc3)c2)[C@H](O)[C@@H](O)[C@@H]1O [(S,E)-2-amino-5-(4-(2-methyl-5-((2S,3R,4R,5S,6R)-3,4,5-trihydroxy-6-(methylthio)tetrahydro-2H-pyran-2-yl)benzyl)phenyl)pent-4-enoic acid] |
